The source of these data is US7824710B2, “Crystalline and stable form of andolast” (Rottapharm S.p.A., priority 2006, dated 2010).

Values joined by “and” are separate entries in the source; they are usually repeats but may differ in a detail not shown here. Identical values can stand only once. Like-named read-outs stand apart in the source and are kept apart here.

Common to all, as to type: physicochemical
Series [1] is described as follows: Solubility of the disodium salt in water. As to conditions: 25° C. As to the method:
N-4-(1H-tetrazol-5-yl)phenyl-4-(1H-tetrazol-5-yl)benzamide is prepared as described in WO 90/09989, Example 13 (herein incorporated by reference). The disodium salt of N-4-(1H-tetrazol-5-yl)phenyl-4-(1H-tetrazol-5-yl)benzamide can be prepared directly as the pentahydrate or precipitated as an undefined mixture of hydrates and then converted into the pentahydrate (Form A), by re-crystallization or by phase equilibration (slurry conversion: slurry in an appropriate solvent mixture). In both cases the disodium salt is obtained by adding to a suspension in water of N-4-(1H-tetrazol-5-yl)phenyl-4-(1H-tetrazol-5-yl)benzamide, an amount of aqueous sodium hydroxide or sodium alkoxide, ranging from 2.0 to 2.2 equivalents, preferably 2.1 equivalents, being sodium methoxide, sodium ethoxide and sodium isopropoxide the preferred alkoxide, at a temperature ranging from +15° to +40° C. […] The resulting mixture is stirred until the solid is completely dissolved, then the pH of the solution is carefully adjusted to 6.5-7.5, by addition of diluted hydrochloric acid, filtered and concentrated under vacuum, at a temperature not exceeding +60° C. […]

A short description of series [2]: Moisture sorption/desorption by Differential Vapor Sorption (DVS). Conditions: for R.H. at which substantial desorption (loss of water) starts: DVS scanning mode, 5% ΔR.H. per hour. As to the method:
The moisture sorption/desorption behavior was analyzed for different solids using Differential Vapor Sorption (DVS) technique. In FIG. 8 is reported as an example the sorption/desorption isotherms for batch B/6272. […] Though the different batches were not characterized by exactly matching DVS diagrams all reached the about 20% water content after an appropriate time.
This surprising stability to moisture of Form A is also confirmed by DVS experiments. In the scanning mode, water is only lost when about 0% R.H. is reached. Moisture sorption/desorption behavior for the pentahydrate is reported in Example 9 (FIG. 14).
Water vapor sorption/desorption was analyzed using Surface Measurement System Ltd. DVS-1 apparatus. The sample was allowed to equilibrate at 50% R.H. before starting a predefinite humidity program, scanning with 5% ΔR.H. hour^−1 and with several “isohumid” equilibration periods (see FIG. 14 for details). The water content of the sample used for DVS was calculated on the basis of KF analysis, while crystalline form was assessed by FT-Raman spectroscopy. The DVS plots of water content vs. R.H. and R.H. vs. time are reported for Andolast disodium pentahydrate (Form A) in FIG. 14. It can be seen from the DVS plot that substantial desorption starts only at almost 0% RH.

Series [3] in a line: Aerosol performance of dry powder formulation for inhalation by MSLI (Multi Step Liquid Impinger). As to conditions: dose 8 mg. From the text:
As discussed below Andolast disodium salt as Form A can be formulated according to several pharmaceutical compositions.

A short description of series [4]: Stability of crystalline form to jet mill micronization (Example 11). Conditions: MC Jet Mill, nitrogen, 12 bar, about 10 g/30 sec, without cooling. The source says:
In Example 11 it is reported how Form A can be successfully micronized using conditions identical to the ones used for the micronization of the batch B/7081 (see FIGS. 7a and 7b for XRPD spectra) without altering XRPD and spectroscopic characteristics (Ft-Raman and FT-IR), thus proving Form A stability and crystalline form consistency also after the micronization step affording the suitable drug substance for preparing dry powder and pressurized HFA aerosols formulations for inhalation.
Andolast disodium form A is micronized, without cooling, using an MC Jet Mill apparatus, and nitrogen as carrier gas, at 12 bar and with a feeding rate of about 10 g/30 sec.

A short description of series [5]: Storage of open samples in humidity controlled chamber (stability to moisture, Example 8). As to conditions: 9 days; for FT-Raman / KF (water content) / XRPD: open sample. The source says:
The list of improved physical and mechanical characteristics reported below is intended at documenting representative examples of advantages Form A is endowed with over the undefined hydrated forms obtained according to uncontrolled conditions.
samples of Form A were stored, as open samples, in an humidity controlled chamber for 9 days, in Table 5 water content (KF), XRPD and FT-Raman spectra at the end-point of the experiment are reported vs. R.H. […]

Series [6] in a line: Stability to temperature and mechanical mill (Example 10). As to conditions: open sample 1 day at 50° C., then milled 10 min at 24 s−1 in ball swing mill. As to the method: about 1 g of Andolast disodium salt Form A was stored, as open sample, for 1 day at 50° C. The product was then milled for 10 min. at 24 s−1 in a ball swing mill. A sample was then analyzed by KF and FT-Raman spectroscopy.

Series [7] is described as follows: ICH accelerated stability testing.
Setting [8] is: active ingredient/excipient 1:1, Mean of 6 MSLI runs, listed as Form A obtained at Example 3.
Where [9] appears, read: active ingredient/excipient 1:1, capsule inhaler, single MSLI runs 1-6, listed as Form A obtained at Example 3.
Where [10] appears, read: active ingredient/excipient 1:1, Mean of 6 MSLI runs.
Where [11] appears, read: active ingredient/excipient 1:1, capsule inhaler, single MSLI runs 1-6.

Take `O=C(Nc1ccc(-c2nn[n-]n2)cc1)c1ccc(-c2nn[n-]n2)cc1.[Na+].[Na+]` [Andolast disodium salt, N-4-(1H-tetrazol-5-yl)phenyl-4-(1H-tetrazol-5-yl)benzamide disodium salt]: the solubility in series [1] is roughly 150 mg/mL.

As for `O=C(Nc1ccc(-c2nn[n-]n2)cc1)c1ccc(-c2nn[n-]n2)cc1.[Na+].[Na+]` [B/6272, reference compound], the “hygroscopic character of the solid” value in series [2] was “strongly hygroscopic”. In addition, in series [2] (DVS, continuous sorption of moisture), the “water content at plateau of moisture sorption” value is “about 20%”.

`O=C(Nc1ccc(-c2nn[n-]n2)cc1)c1ccc(-c2nn[n-]n2)cc1.[Na+].[Na+]` [Example 3]: in series [3] (setting [8]), the “DD (Delivered Dose)” value is recorded as 7.46 mg, the “FPD (Fine Particle Dose)” value is given as 2.16 mg, the “FPF (Fine Particle Fraction)” value turned out to be 29% and the “MD (Metered Dose)” value turned out to be 8.48 mg. Also, the MMAD in series [3] (setting [8]) worked out at 3.8 μm. In addition, in series [3] (setting [9]), the “DD (Delivered Dose)” value is 7.25 mg and 7.54 mg and 7.47 mg and 7.33 mg and 7.71 mg and 7.43 mg; the “FPD (Fine Particle Dose)” value is 1.96 mg and 2.07 mg and 2.58 mg and 1.97 mg and 2.18 mg and 2.20 mg; the “FPF (Fine Particle Fraction)” value is 27% and 35% and 28% and 30%; the “MD (Metered Dose)” value was 8.31 mg and 8.67 mg and 8.46 mg and 8.33 mg and 8.49 mg and 8.60 mg. Besides, the MMAD in series [3] (setting [9]) was 3.8 μm and 4.0 μm and 3.6 μm and 3.9 μm.

Take `O=C(Nc1ccc(-c2nn[n-]n2)cc1)c1ccc(-c2nn[n-]n2)cc1.[Na+].[Na+]` [Form A, N-4-(1H-tetrazol-5-yl)phenyl-4-(1H-tetra-zol-5yl)benzamide disodium salt]: the “changes in XRPD, FT-IR and FT-Raman versus not-micronized starting material” value in series [4] is reported as “no changes were observed”. The “Stability to moisture (water content and solid form)” value in series [5] (R.H. from 12% to 85%, room temperature) is on record as “did not alter the water content of any sample, neither the solid form”. For the same molecule, the FT-Raman entry in series [5] (RH 12%), in series [5] (RH 22%), in series [5] (RH 32%), in series [5] (RH 53%), in series [5] (RH 65%) and in series [5] (RH 75%) was “Complies with Form A” in each case. Further, the FT-Raman result in series [5] (RH 85%) is “Complies with Form A”. The “KF (water content)” value in series [5] (RH 12%) is given as 19.26%; in series [5] (RH 22%) it was 19.36%; in series [5] (RH 32%), 19.34%; in series [5] (RH 53%), 19.35%; in series [5] (RH 65%), 19.25%; in series [5] (RH 75%) it was 19.22%. Also, the “KF (water content)” value was 19.43% in series [5] (RH 85%) and 19.53% in series [6]. The XRPD result in series [5] (RH 12%), in series [5] (RH 22%), in series [5] (RH 32%), in series [5] (RH 53%), in series [5] (RH 65%) and in series [5] (RH 75%) was “Complies with Form A” throughout. Further, in series [5] (RH 85%), the XRPD result is given as “Complies with Form A”. Also, the “crystalline change by Raman spectra” value in series [6] is “no crystalline change occurred”. Moreover, the “R.H. at which substantial desorption (loss of water) starts” value is recorded as “about 0 % RH” in series [2] (disodium salt) and roughly 0 % RH in series [2] (listed as Andolast disodium pentahydrate (Form A), disodium salt). In addition, in series [2] (listed as Andolast disodium Form A, disodium salt), the “hygroscopic character of the solid” value was “not hygroscopic”. In addition, the “stability (physical form and chemical stability)” value in series [7] is reported as “confirmed its stability”.

As to `O=C(Nc1ccc(-c2nn[n-]n2)cc1)c1ccc(-c2nn[n-]n2)cc1.[Na+].[Na+]` [B/7080, reference compound], in series [3] (setting [10]), the “DD (Delivered Dose)” value came out at 6.63 mg, the “FPD (Fine Particle Dose)” value is 1.12 mg, the “FPF (Fine Particle Fraction)” value stood at 17% and the “MD (Metered Dose)” value amounted to 7.55 mg. In series [3] (setting [10]), the MMAD was found to be 5.2 μm. In series [3] (setting [11]), the “DD (Delivered Dose)” value was 6.66 mg and 5.96 mg and 6.77 mg and 7.01 mg and 6.57 mg and 6.81 mg; the “FPD (Fine Particle Dose)” value is 0.96 mg and 0.99 mg and 1.21 mg and 1.01 mg and 1.23 mg and 1.30 mg; the “MD (Metered Dose)” value was 7.60 mg and 7.29 mg and 7.61 mg and 7.85 mg and 7.65 mg; the MMAD was 5.3 μm and 5.2 μm and 5.1 μm and 5.4 μm.
